# pIC50: −log10 of the molar value.
# Assays:
# EGFR L858R/T790M = EGFR L858R/T790M (Homo sapiens, UniProt P00533, L858R/T790M); experiment: Kinase inhibitory activity against EGFR bearing the L858R/T790M double mutation; format: biochemical; details: 10 pt curves, 3 μM top concentration, 10 μM ATP; read-out: IC50 for kinase inhibition, EGFR L858R T790M
# In short: (§1)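 Ten-point dose-response curves were run in singlicate from a 3 μM top concentration, with ATP at 10 μM.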
# [1] = target: T1, BaF3 cells expressing the target EGFR mutations (Homo sapiens, UniProt P00533, T790M/L858R, cells depend on it); experiment: Antiproliferative activity (MTT) against BaF3 cells expressing the target EGFR mutations; format: cell-based; details: BAF3 EGFR L858R-T790M PURO POOL cells, read-out: IC50, BAF3 EGFR L858R-T790M PURO POOL
# T1 construct: IC50, BAF3 EGFR L858R-T790M PURO POOL; other: BAF3 EGFR L858R-T790M PURO POOL cells, MTT; IC50, BAF3 EGFR L858R-T790M PURO POOL; other: BAF3 EGFR L858R-T790M PURO POOL cells; MTT
# T1 sequence (P00533 whole entry T790M/L858R): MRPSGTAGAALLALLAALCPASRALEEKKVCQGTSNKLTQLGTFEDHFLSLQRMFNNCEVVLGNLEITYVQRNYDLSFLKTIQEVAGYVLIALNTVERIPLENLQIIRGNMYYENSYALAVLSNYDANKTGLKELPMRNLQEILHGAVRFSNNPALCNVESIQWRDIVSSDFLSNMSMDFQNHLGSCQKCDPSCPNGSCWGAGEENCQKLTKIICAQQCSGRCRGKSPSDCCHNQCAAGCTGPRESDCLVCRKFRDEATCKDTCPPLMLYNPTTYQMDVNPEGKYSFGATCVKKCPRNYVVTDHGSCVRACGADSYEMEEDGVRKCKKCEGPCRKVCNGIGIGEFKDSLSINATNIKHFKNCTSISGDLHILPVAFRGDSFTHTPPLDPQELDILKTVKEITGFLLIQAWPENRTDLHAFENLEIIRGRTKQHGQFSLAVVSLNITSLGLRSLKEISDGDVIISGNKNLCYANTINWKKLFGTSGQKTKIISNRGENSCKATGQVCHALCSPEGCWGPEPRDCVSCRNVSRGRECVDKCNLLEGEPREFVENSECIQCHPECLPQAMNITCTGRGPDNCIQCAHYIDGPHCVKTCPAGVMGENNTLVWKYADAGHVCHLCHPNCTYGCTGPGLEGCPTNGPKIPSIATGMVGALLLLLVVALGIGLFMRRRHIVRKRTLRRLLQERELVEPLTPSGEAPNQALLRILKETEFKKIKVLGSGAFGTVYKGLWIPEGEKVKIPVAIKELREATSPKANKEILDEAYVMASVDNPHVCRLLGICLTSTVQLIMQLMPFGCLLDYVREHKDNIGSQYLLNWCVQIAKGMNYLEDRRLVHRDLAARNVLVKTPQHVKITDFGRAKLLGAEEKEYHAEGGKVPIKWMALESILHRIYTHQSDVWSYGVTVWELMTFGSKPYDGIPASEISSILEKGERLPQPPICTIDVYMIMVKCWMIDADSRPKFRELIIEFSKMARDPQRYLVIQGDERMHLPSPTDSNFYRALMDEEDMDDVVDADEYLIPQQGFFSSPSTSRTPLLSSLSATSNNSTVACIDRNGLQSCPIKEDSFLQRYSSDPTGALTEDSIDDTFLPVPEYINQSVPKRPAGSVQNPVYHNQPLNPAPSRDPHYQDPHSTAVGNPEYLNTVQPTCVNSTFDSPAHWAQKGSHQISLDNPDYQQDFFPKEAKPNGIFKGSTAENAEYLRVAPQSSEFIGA
# In short: (§2)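 Antiproliferative effect was measured by MTT in BaF3 cells engineered to express mutant EGFR, with wildtype-EGFR BaF3 cells as the control line.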
# [2] = target: T2, BaF3 cells expressing the target EGFR mutations (Homo sapiens, UniProt P00533, T790M, cells depend on it, form not given); experiment: as above; format: cell-based; details: BAF3 EGFR DEL T790M PURO POOL cells, read-out: IC50, BAF3 EGFR DEL T790M PURO POOL
# T2 construct: IC50, BAF3 EGFR DEL T790M PURO POOL; other: BAF3 EGFR DEL T790M PURO POOL cells, MTT; other: BAF3 EGFR DEL T790M PURO POOL cells; MTT
# T2 sequence (P00533 with tags, fused parts or gaps DEL746-750/T790M, form open): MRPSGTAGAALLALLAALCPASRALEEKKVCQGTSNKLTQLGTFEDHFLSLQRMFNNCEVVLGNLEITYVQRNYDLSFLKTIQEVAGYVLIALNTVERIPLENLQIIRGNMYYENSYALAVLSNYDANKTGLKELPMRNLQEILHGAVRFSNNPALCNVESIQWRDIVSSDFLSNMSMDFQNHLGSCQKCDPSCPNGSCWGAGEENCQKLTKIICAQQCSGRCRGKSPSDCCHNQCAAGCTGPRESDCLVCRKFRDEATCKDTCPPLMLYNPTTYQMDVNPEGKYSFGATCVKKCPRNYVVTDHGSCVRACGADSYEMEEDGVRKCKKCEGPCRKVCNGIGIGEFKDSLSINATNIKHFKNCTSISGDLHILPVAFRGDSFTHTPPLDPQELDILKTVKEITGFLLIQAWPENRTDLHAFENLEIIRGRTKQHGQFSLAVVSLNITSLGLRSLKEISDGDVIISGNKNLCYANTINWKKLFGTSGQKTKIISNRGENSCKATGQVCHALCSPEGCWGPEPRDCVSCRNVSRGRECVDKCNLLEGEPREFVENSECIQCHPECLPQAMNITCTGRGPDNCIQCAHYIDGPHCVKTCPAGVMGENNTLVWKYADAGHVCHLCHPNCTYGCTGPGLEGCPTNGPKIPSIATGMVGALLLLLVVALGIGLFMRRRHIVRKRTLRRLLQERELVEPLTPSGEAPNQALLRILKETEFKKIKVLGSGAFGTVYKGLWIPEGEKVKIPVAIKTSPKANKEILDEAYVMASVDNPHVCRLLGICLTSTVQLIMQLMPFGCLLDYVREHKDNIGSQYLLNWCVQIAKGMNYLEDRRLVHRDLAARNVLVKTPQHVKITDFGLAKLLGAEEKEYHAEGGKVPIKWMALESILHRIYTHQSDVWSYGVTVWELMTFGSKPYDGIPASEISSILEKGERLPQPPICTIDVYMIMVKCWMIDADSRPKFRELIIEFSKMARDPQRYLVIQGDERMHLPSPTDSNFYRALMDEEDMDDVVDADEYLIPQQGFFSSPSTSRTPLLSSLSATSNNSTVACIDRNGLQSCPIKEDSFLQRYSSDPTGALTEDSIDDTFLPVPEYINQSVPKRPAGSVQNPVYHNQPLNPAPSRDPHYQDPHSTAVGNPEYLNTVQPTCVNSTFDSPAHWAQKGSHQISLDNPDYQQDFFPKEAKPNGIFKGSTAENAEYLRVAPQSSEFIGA
# In short: as §2
# [3] = target: human EGFR (native sequence) (Homo sapiens, UniProt P00533); experiment: Kinase inhibitory activity against human EGFR (native sequence); format: biochemical; details: 10 pt curves, 3 μM top concentration, 10 μM ATP; read-out: IC50 for kinase inhibition, EGFR
# In short: as §1
# EGFR L858R = EGFR L858R (Homo sapiens, UniProt P00533, L858R); experiment: Kinase inhibitory activity against EGFR bearing the L858R mutation; format: biochemical; details: 10 pt curves, 3 μM top concentration, 10 μM ATP; read-out: IC50 for kinase inhibition, EGFR L858R
# Chain of EGFR L858R (P00533 25-1210 L858R): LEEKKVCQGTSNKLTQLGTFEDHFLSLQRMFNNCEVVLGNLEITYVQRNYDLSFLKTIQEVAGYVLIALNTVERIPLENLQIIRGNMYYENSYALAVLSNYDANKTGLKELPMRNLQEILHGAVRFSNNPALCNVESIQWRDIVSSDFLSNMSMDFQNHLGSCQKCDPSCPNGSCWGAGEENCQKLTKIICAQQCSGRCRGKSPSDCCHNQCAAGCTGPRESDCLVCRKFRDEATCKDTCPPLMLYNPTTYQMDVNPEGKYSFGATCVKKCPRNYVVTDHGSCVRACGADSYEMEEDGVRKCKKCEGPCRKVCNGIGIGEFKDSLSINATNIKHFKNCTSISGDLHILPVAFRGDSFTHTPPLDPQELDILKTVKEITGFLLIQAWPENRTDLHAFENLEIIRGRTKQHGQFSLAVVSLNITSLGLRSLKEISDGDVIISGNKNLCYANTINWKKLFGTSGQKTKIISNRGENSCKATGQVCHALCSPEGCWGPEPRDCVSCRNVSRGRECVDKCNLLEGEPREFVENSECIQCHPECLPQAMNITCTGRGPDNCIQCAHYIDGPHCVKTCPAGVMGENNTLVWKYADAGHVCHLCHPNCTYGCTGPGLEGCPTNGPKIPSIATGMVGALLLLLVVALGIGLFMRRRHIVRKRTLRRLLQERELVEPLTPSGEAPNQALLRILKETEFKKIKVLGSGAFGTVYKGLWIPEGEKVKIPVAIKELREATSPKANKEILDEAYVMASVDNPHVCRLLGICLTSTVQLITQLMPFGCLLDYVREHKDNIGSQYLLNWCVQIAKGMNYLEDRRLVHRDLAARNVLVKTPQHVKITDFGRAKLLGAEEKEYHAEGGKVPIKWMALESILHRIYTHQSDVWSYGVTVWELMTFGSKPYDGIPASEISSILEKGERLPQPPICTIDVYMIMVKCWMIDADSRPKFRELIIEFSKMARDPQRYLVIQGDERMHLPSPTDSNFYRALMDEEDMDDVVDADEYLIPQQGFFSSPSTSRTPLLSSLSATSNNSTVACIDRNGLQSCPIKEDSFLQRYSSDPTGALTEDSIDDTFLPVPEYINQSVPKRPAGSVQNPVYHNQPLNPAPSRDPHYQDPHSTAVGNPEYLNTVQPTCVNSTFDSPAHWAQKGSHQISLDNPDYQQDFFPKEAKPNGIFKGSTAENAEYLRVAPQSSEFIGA
# In short: as §1
# [4] = system: BaF3 cells expressing wildtype EGFR; experiment: Antiproliferative activity (MTT) against control BaF3 cells expressing wildtype EGFR; format: cell-based; details: Mus musculus, BAF3 parental cells
# In short: as §2
# Chain of EGFR L858R/T790M (P00533 25-1210 T790M/L858R): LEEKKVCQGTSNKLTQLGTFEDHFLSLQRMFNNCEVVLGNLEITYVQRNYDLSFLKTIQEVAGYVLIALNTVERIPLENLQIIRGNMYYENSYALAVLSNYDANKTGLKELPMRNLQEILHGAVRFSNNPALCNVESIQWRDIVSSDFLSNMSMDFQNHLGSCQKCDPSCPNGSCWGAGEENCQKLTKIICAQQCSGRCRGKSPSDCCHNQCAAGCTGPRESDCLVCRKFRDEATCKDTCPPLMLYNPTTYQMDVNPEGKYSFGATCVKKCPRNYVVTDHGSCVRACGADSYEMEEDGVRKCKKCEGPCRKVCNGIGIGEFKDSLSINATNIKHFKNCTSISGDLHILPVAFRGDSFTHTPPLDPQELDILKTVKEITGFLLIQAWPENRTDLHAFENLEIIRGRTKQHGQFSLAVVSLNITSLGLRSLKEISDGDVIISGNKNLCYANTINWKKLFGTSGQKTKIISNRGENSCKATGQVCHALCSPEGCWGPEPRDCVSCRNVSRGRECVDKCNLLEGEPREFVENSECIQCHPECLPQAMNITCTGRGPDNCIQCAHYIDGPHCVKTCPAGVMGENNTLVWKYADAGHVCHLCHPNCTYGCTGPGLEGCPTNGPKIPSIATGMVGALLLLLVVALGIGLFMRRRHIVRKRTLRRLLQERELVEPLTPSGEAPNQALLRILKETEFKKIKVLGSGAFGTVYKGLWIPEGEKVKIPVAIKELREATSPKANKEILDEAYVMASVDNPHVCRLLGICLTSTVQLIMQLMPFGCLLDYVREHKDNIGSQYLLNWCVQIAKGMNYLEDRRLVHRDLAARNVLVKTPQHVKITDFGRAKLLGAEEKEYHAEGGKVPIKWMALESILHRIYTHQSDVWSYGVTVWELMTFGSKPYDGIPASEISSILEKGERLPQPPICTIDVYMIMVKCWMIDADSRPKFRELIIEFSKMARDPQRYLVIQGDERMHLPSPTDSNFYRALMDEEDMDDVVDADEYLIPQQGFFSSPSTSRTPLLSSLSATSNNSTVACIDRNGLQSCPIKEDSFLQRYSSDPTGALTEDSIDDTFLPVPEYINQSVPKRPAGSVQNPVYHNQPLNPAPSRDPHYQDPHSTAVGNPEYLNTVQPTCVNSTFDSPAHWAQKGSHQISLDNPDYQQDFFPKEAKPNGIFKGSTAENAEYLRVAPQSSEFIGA
SMILES,pIC50 (EGFR L858R/T790M),GI50 [1],GI50 [2],pIC50 [3],pIC50 (EGFR L858R),pIC50 [4]
"C=CC(=O)Nc1cc(Nc2ncc(Cl)c(Nc3ccccc3P(C)(C)=O)n2)c(OC)cc1O[C@@H](COC)CN(C)C [Example 129, (R)-N-(5-((5-chloro-4-((2-(dimethylphosphoryl)phenyl)amino)pyrimidin-2-yl)amino)-2-((1-(dimethylamino)-3-methoxypropan-2-yl)oxy)-4-methoxyphenyl)acrylamide]",> 7.30,< 50 nM,< 50 nM,> 7.30,> 7.30,≤ 6.60
"C=CC(=O)Nc1cc(Nc2ncc(Cl)c(Nc3ccccc3P(C)(C)=O)n2)c(OC)cc1OC(COC)CN(C)C (stereo not drawn) [Example 130, N-(5-((5-chloro-4-((2-(dimethylphosphoryl)phenyl)amino)pyrimidin-2-yl)amino)-2-((1-(dimethylamino)-3-methoxypropan-2-yl)oxy)-4-methoxyphenyl)acrylamide]",> 7.30,< 50 nM,< 50 nM,> 7.30,> 7.30,≤ 6.60
"C=CC(=O)Nc1ccc(OC)c(Nc2ncc(OC)c(Nc3ccccc3P(C)(C)=O)n2)c1 [Example 131, N-(3-((4-((2-(dimethylphosphoryl)phenyl)amino)-5-methoxypyrimidin-2-yl)amino)-4-methoxyphenyl)acrylamide]",> 7.30,50 to 100 nM,< 50 nM,7.00 to 7.30,> 7.30,≤ 6.60
"C=C(Cl)C(=O)Nc1ccc(OC)c(Nc2ncc(Cl)c(Nc3ccccc3P(C)(C)=O)n2)c1 [Example 132, 2-chloro-N-(3-((5-chloro-4-((2-(dimethylphosphoryl)phenyl)amino)pyrimidin-2-yl)amino)-4-methoxyphenyl)acrylamide]",> 7.30,101 to 250 nM,< 50 nM,> 7.30,> 7.30,≤ 6.60
"C=CC(=O)Nc1cc(Nc2ncc(Cl)c(Nc3ccccc3P(C)(C)=O)n2)c(OC)cc1C [Example 133, N-(5-((5-chloro-4-((2-(dimethylphosphoryl)phenyl)amino)pyrimidin-2-yl)amino)-4-methoxy-2-methylphenyl)acrylamide]",> 7.30,< 50 nM,< 50 nM,> 7.30,> 7.30,≤ 6.60
"C=CC(=O)Nc1ccc(OC(F)(F)F)c(Nc2ncc(Cl)c(Nc3ccccc3P(C)(C)=O)n2)c1 [Example 134, N-(3-((5-chloro-4-((2-(dimethylphosphoryl)phenyl)amino)pyrimidin-2-yl)amino)-4-(trifluoromethoxy)phenyl)acrylamide]",> 7.30,< 50 nM,< 50 nM,> 7.30,> 7.30,≤ 6.60
"C=CC(=O)Nc1ccc(CC)c(Nc2ncc(Cl)c(Nc3ccccc3P(C)(C)=O)n2)c1 [Example 135, N-(3-((5-chloro-4-((2-(dimethylphosphoryl)phenyl)amino)pyrimidin-2-yl)amino)-4-ethylphenyl)acrylamide]",> 7.30,< 50 nM,< 50 nM,> 7.30,> 7.30,≤ 6.60
"C=CC(=O)Nc1ccc(Cl)c(Nc2ncc(Cl)c(Nc3ccccc3P(C)(C)=O)n2)c1 [Example 136, N-(4-chloro-3-((5-chloro-4-((2-(dimethylphosphoryl)phenyl)amino)pyrimidin-2-yl)amino)phenyl)acrylamide]",> 7.30,< 50 nM,< 50 nM,> 7.30,> 7.30,≤ 6.60
"COc1ccc(NC(=O)CCl)cc1Nc1ncc(Cl)c(Nc2ccccc2P(C)(C)=O)n1 [Example 137, 2-chloro-N-(3-((5-chloro-4-((2-(dimethylphosphoryl)phenyl)amino)pyrimidin-2-yl)amino)-4-methoxyphenyl)acetamide]",> 7.30,< 50 nM,< 50 nM,> 7.30,> 7.30,≤ 6.60
"COc1ccc(NC(=O)CF)cc1Nc1ncc(Cl)c(Nc2ccccc2P(C)(C)=O)n1 [Example 147, N-(3-((5-chloro-4-((2-(dimethylphosphoryl)phenyl)amino)pyrimidin-2-yl)amino)-4-methoxyphenyl)-2-fluoroacetamide]",6.60 to 7.00,≥ 250 nM,≥ 250 nM,≤ 6.60,7.00 to 7.30,≤ 6.60

# Second part, led by results:
pIC50 (EGFR L858R/T790M),GI50 [1],GI50 [2],pIC50 [3],pIC50 (EGFR L858R),SMILES,pIC50 [4]
≤ 6.60,≥ 250 nM,≥ 250 nM,≤ 6.60,≤ 6.60,"C=CC(=O)Nc1ccc(OC2COC2)c(Nc2ncc(Cl)c(Nc3ccccc3P(C)(C)=O)n2)c1 [Example 138, N-(3-((5-chloro-4-((2-(dimethylphosphoryl)phenyl)amino)pyrimidin-2-yl)amino)-4-(oxetan-3-yloxy)phenyl)acrylamide]",≤ 6.60
> 7.30,≥ 250 nM,101 to 250 nM,> 7.30,> 7.30,"C=CC(=O)Nc1ccc(OC)c(Nc2ncc(C#N)c(Nc3ccccc3P(C)(C)=O)n2)c1 [Example 139, N-(3-((5-cyano-4-((2-(dimethylphosphoryl)phenyl)amino)pyrimidin-2-yl)amino)-4-methoxyphenyl)acrylamide]",≤ 6.60
> 7.30,< 50 nM,< 50 nM,> 7.30,> 7.30,"COc1cc(C)c(NC(=O)CCl)cc1Nc1ncc(Cl)c(Nc2ccccc2P(C)(C)=O)n1 [Example 140, 2-chloro-N-(5-((5-chloro-4-((2-(dimethylphosphoryl)phenyl)amino)pyrimidin-2-yl)amino)-4-methoxy-2-methylphenyl)acetamide]",≤ 6.60
> 7.30,< 50 nM,< 50 nM,> 7.30,> 7.30,"COc1ccc(NC(=O)CCl)cc1Nc1ncc(C)c(Nc2ccccc2P(C)(C)=O)n1 [Example 141, 2-chloro-N-(3-((4-((2-(dimethylphosphoryl)phenyl)amino)-5-methylpyrimidin-2-yl)amino)-4-methoxyphenyl)acetamide]",≤ 6.60
> 7.30,< 50 nM,< 50 nM,> 7.30,> 7.30,"C=CC(=O)Nc1cc(Nc2ncc(Cl)c(Nc3ccccc3P(C)(C)=O)n2)c(OC)cc1OC(COCC)CN(C)C (stereo not drawn) [Example 142, N-(5-((5-chloro-4-((2-(dimethylphosphoryl)phenyl)amino)pyrimidin-2-yl)amino)-2-((1-(dimethylamino)-3-ethoxypropan-2-yl)oxy)-4-methoxyphenyl)acrylamide]",≤ 6.60
> 7.30,< 50 nM,< 50 nM,> 7.30,> 7.30,C=CC(=O)Nc1cc(Nc2ncc(Cl)c(Nc3ccccc3P(C)(C)=O)n2)c(C)cc1OC(COC)CN(C)C (stereo not drawn) [Example 143],≤ 6.60
> 7.30,< 50 nM,< 50 nM,> 7.30,> 7.30,"C=CC(=O)Nc1cc(Nc2ncc(Cl)c(Nc3ccccc3P(C)(C)=O)n2)c(Cl)cc1OC(COC)CN(C)C (stereo not drawn) [Example 145, N-(4-chloro-5-((5-chloro-4-((2-(dimethylphosphoryl)phenyl)amino)pyrimidin-2-yl)amino)-2-((1-(dimethylamino)-3-methoxypropan-2-yl)oxy)phenyl)acrylamide]",≤ 6.60
> 7.30,< 50 nM,< 50 nM,> 7.30,> 7.30,"Cc1ccc(NC(=O)CCl)cc1Nc1ncc(Cl)c(Nc2ccccc2P(C)(C)=O)n1 [Example 148, 2-chloro-N-(3-((5-chloro-4-((2-(dimethylphosphoryl)phenyl)amino)pyrimidin-2-yl)amino)-4-methylphenyl)acetamide]",≤ 6.60
> 7.30,< 50 nM,< 50 nM,> 7.30,> 7.30,"COc1cc(F)c(NC(=O)CCl)cc1Nc1ncc(Cl)c(Nc2ccccc2P(C)(C)=O)n1 [Example 149, 2-chloro-N-(5-((5-chloro-4-((2-(dimethylphosphoryl)phenyl)amino)pyrimidin-2-yl)amino)-2-fluoro-4-methoxyphenyl)acetamide]",≤ 6.60

# Source: US9834571B2, “Compounds for inhibiting cell proliferation in EGFR-driven cancers” (ARIAD Pharmaceuticals, Inc., priority 2012, dated 2017)
